Reference: patent US20220265694A1, “COMPOSITIONS AND METHODS FOR TREATING AN INFECTION” (CMPD LICENSING, LLC, priority 2016, published 2022)

Columns and labels:
[1] = system: Clostridium difficile; assay: Expected efficacy of antibiotic agents; settings: expected efficacy against Clostridium difficile; Gram: anaer
[2] = system: Acinetobacter lwoffii; assay: Expected efficacy of antibiotic agents; settings: expected efficacy against Acinetobacter lwoffii; Gram: neg
[3] = system: Haemophilus parainfluenzae; assay: Expected efficacy of antibiotic agents; settings: expected efficacy against Haemophilus parainfluenzae; Gram: neg
[4] = system: Morganella morganii; assay: Expected efficacy of antibiotic agents; settings: expected efficacy against Morganella morganii; Gram: neg
[5] = system: Neisseria meningitidis; assay: Expected efficacy of antibiotic agents; settings: expected efficacy against Neisseria meningitidis; Gram: neg
[6] = system: Proteus mirabilis; assay: Expected efficacy of antibiotic agents; settings: expected efficacy against Proteus mirabilis; Gram: neg
[7] = system: Proteus vulgaris; assay: Expected efficacy of antibiotic agents; settings: expected efficacy against Proteus vulgaris; Gram: neg
[8] = system: Shigella boydii; assay: Expected efficacy of antibiotic agents; settings: expected efficacy against Shigella boydii; Gram: neg
[9] = system: Shigella dysenteriae; assay: Expected efficacy of antibiotic agents; settings: expected efficacy against Shigella dysenteriae; Gram: neg
[10] = system: Shigella flexneri; assay: Expected efficacy of antibiotic agents; settings: expected efficacy against Shigella flexneri; Gram: neg
[11] = system: Methicillin resistant staph aureus (MRSA); assay: Expected efficacy of antibiotic agents; settings: expected efficacy against Methicillin resistant staph aureus (MRSA); Gram: pos
[12] = system: Staphylococcus aureus (MSSA); assay: Expected efficacy of antibiotic agents; settings: expected efficacy against Staphylococcus aureus (MSSA); Gram: pos
[13] = system: Streptococcus pneumoniae; assay: Expected efficacy of antibiotic agents; settings: expected efficacy against Streptococcus pneumoniae; Gram: pos
[14] = system: Viridans group streptococci; assay: Expected efficacy of antibiotic agents; settings: expected efficacy against Viridans group streptococci; Gram: pos
[15] = system: Bartonella bacilliformis; assay: Expected efficacy of antibiotic agents; settings: expected efficacy against Bartonella bacilliformis; Gram: neg
[16] = system: Brucella species
[17] = system: Pseudomonas fluorescens; assay: Expected efficacy of antibiotic agents; settings: expected efficacy against Pseudomonas fluorescens; Gram: neg

Row | SMILES | Efficacy [1] | Efficacy [2] | Efficacy [3] | Efficacy [4] | Efficacy [5] | Efficacy [6] | Efficacy [7] | Efficacy [8] | Efficacy [9] | Efficacy [10] | Efficacy [11] | Efficacy [12] | Efficacy [13] | Efficacy [14] | Efficacy [15] | Efficacy [16] | Efficacy [17]
1 | CO/N=C(\C(=O)N[C@@H]1C(=O)N2C(C(=O)O)=C(CSc3nc(=O)c(=O)[nH]n3C)CS[C@H]12)c1csc(N)n1 [Ceftriaxone] | no | no | yes | yes | yes | yes | yes | yes | yes | yes | no | yes | yes | yes | – | – | –
2 | CN[C@H](CC(C)C)C(=O)N[C@H]1C(=O)N[C@@H](CC(N)=O)C(=O)N[C@H]2C(=O)N[C@H]3C(=O)N[C@H](C(=O)N[C@H](C(=O)O)c4cc(O)cc(O)c4-c4cc3ccc4O)[C@H](O)c3ccc(c(Cl)c3)Oc3cc2cc(c3O[C@@H]2O[C@H](CO)[C@@H](O)[C@H](O)[C@H]2O[C@H]2C[C@](C)(N)[C@H](O)[C@H](C)O2)Oc2ccc(cc2Cl)[C@H]1O [Vancomycin] | yes | no | no | no | no | no | no | no | no | no | yes | yes | yes | yes | no | no | no
